# Data as given in ChEMBL document CHEMBL5104197, “Structure-Based Optimization of Coumestan Derivatives as Polyketide Synthase 13-Thioesterase(Pks13-TE) Inhibitors with Improved hERG Profiles for Mycobacterium tuberculosis Treatment” (J Med Chem, 2022).
# Columns and labels:
# [1] = tested on: Polyketide synthase Pks13 (Mycobacterium tuberculosis (strain ATCC 25618 / H37Rv)), I6X8D2 [N1640S]; test: Binding affinity to Mycobacterium tuberculosis Pks13-TE N1640S mutant expressed in Escherichia coli BL21(DE3) pLysS assessed as change in melting temperature at 1:5 compound to protein ratio by nanoDSF thermal stability analysis
# [2] = tested on: Polyketide synthase Pks13 (Mycobacterium tuberculosis (strain ATCC 25618 / H37Rv)), I6X8D2 [N1640S]; test: Binding affinity to Mycobacterium tuberculosis Pks13-TE N1640S mutant expressed in Escherichia coli BL21(DE3) pLysS assessed as change in melting temperature at 1:10 compound to protein ratio by nanoDSF thermal stability analysis
# [3] = tested on: Mycobacterium tuberculosis; assay type: functional, Vero; details: R506, 168 h, time 7 day
# [4] = tested on: Polyketide synthase Pks13 (Mycobacterium tuberculosis (strain ATCC 25618 / H37Rv)), I6X8D2 [N1640K]; test: Binding affinity to Mycobacterium tuberculosis Pks13-TE N1640K mutant expressed in Escherichia coli BL21(DE3) pLysS assessed as change in melting temperature at 1:5 compound to protein ratio by nanoDSF thermal stability analysis
# [5] = tested on: Mycobacterium tuberculosis; assay type: functional, Vero; details: TF274, 168 h, time 7 day
# [6] = tested on: Mycobacterium tuberculosis; assay type: functional, Vero; details: V2475, 168 h, time 7 day
# [7] = tested on: Polyketide synthase Pks13 (Mycobacterium tuberculosis (strain ATCC 25618 / H37Rv)), I6X8D2 [N1640K]; test: Binding affinity to Mycobacterium tuberculosis Pks13-TE N1640K mutant expressed in Escherichia coli BL21(DE3) pLysS assessed as change in melting temperature at 1:10 compound to protein ratio by nanoDSF thermal stability analysis
# [8] = tested on: Mycobacterium tuberculosis; assay type: functional, Vero; details: KZN494, 168 h, time 7 day
SMILES,ΔTm [1],ΔTm [2],MIC90 [3],ΔTm [4],MIC90 [5],MIC90 [6],ΔTm [7],MIC90 [8]
COc1ccc2c(c1)oc(=O)c1c2oc2ccc(O)c(CN3CCC(F)(F)CC3)c21,1.9 °C,1.7 °C,,,,,,
O=c1oc2cc(O)ccc2c2oc3ccc4c(c3c12)CN(C1CCCC1)CO4,10.1 °C,10.9 °C,0.0039 µg/mL,0.3 °C,0.0039 µg/mL,0.0039 µg/mL,0.1 °C,0.0039 µg/mL
O=c1oc2cc(O)ccc2c2oc3ccc4c(c3c12)CN(CC1CC1)CO4,8.6 °C,9.3 °C,,0.2 °C,,,0.1 °C,
O=c1oc2cc(O)ccc2c2oc3ccc(O)c(CN4CC[C@H](F)C4)c3c12,6.9 °C,7.9 °C,,,,,,
O=c1oc2cc(O)ccc2c2oc3ccc(O)c(CN4CCCCC4)c3c12,11.4 °C,10.5 °C,,0.8 °C,,,0.9 °C,
O=c1oc2cc(O)ccc2c2oc3ccc(O)c(CN4CCC(F)CC4)c3c12,8.7 °C,9.6 °C,0.0625 µg/mL,1.5 °C,0.0625 µg/mL,0.125 µg/mL,1 °C,0.0625 µg/mL
